Molecules are shown by their SMILES.

Assay [1] addresses T1, HiBit-BRM fusion protein (Homo sapiens, UniProt P51531).
T1 construct: expressed in transfected cells
Kind of assay: HiBiT-BRM cell-based degradation assay (Nano-Glo HiBiT Lytic Detection, 24 h). Particulars: HeLa cell line expressing HiBiT-BRM; for DC50: read-out: BRM HiBit Degradation IC50. The gist of the method: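 Percent BRM loss was derived from HiBiT luminescence relative to DMSO-treated cells and cells given 2 μM of a known BRM/BRG1 degrader. Treatment lasted 24 h in HiBiT-BRM HeLa cells, with a top final concentration of 30 μM.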

Assay [2] has as its target T2, HiBit-BRG1 fusion protein (Homo sapiens, UniProt P51532).
T2 construct: expressed in transfected cells
Kind of assay: HiBiT-BRG1 cell-based degradation assay (Nano-Glo HiBiT Lytic Detection, 24 h). Particulars: HeLa cell line expressing HiBit-BRG1 and LgBit; for Dmax: read-out: BRG1 HiBit Degradation Maximum (%); for DC50: read-out: BRMG1 HiBit Degradation IC50. In a few lines: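 Seed 5000 HeLa HiBit-BRG1/LgBit cells per well; treat 24 h; equilibrate 15 min at room temperature; add Nano-Glo HiBiT lytic reagent, shake 10 min, read luminescence. Percent degradation is scaled between DMSO and 2 μM reference degrader wells.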

T2 sequence (P51532 whole entry, the tested form may be a part): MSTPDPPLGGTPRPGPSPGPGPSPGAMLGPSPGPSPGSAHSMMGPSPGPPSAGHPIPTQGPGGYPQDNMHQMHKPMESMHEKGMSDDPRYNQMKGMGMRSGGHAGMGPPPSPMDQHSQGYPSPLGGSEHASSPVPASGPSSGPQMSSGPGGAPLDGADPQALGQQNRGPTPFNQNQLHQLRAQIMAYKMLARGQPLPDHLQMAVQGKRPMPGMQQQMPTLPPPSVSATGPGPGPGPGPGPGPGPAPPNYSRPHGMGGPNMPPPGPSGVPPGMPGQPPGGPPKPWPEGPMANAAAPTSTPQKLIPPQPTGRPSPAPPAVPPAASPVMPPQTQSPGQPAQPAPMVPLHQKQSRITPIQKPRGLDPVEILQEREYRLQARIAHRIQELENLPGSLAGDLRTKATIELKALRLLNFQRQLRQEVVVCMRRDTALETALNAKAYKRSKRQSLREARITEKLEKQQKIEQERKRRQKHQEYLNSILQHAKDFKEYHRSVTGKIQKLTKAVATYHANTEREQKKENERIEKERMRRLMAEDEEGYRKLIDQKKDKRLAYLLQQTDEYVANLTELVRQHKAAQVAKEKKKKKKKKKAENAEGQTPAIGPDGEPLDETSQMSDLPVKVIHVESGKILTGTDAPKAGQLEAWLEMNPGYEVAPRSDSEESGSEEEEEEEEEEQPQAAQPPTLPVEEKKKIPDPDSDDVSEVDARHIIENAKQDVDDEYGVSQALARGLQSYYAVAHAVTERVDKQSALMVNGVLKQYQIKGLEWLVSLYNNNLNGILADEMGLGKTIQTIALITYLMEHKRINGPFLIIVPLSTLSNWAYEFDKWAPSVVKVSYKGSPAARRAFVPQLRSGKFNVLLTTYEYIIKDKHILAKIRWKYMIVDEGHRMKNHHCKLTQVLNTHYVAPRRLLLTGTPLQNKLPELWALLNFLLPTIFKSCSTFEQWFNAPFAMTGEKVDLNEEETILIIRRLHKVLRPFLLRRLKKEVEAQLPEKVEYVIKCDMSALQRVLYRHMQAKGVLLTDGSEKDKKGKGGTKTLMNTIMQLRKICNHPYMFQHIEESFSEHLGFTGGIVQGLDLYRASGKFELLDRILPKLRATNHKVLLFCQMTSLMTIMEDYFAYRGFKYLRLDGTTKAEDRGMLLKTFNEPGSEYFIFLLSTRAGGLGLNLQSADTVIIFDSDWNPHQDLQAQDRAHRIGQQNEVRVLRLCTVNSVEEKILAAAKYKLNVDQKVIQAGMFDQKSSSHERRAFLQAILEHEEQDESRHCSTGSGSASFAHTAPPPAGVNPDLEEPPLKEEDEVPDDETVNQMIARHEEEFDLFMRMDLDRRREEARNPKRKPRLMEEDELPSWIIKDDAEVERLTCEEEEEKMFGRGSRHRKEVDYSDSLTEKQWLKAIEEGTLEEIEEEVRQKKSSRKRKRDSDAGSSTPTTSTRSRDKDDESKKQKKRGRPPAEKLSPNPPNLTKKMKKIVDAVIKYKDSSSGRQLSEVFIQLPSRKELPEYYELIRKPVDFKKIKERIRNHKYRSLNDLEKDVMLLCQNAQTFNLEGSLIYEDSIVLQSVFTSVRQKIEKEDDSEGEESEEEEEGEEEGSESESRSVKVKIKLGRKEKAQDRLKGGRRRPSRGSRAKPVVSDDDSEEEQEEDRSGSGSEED
T1 sequence (P51531 whole entry, the tested form may be a part): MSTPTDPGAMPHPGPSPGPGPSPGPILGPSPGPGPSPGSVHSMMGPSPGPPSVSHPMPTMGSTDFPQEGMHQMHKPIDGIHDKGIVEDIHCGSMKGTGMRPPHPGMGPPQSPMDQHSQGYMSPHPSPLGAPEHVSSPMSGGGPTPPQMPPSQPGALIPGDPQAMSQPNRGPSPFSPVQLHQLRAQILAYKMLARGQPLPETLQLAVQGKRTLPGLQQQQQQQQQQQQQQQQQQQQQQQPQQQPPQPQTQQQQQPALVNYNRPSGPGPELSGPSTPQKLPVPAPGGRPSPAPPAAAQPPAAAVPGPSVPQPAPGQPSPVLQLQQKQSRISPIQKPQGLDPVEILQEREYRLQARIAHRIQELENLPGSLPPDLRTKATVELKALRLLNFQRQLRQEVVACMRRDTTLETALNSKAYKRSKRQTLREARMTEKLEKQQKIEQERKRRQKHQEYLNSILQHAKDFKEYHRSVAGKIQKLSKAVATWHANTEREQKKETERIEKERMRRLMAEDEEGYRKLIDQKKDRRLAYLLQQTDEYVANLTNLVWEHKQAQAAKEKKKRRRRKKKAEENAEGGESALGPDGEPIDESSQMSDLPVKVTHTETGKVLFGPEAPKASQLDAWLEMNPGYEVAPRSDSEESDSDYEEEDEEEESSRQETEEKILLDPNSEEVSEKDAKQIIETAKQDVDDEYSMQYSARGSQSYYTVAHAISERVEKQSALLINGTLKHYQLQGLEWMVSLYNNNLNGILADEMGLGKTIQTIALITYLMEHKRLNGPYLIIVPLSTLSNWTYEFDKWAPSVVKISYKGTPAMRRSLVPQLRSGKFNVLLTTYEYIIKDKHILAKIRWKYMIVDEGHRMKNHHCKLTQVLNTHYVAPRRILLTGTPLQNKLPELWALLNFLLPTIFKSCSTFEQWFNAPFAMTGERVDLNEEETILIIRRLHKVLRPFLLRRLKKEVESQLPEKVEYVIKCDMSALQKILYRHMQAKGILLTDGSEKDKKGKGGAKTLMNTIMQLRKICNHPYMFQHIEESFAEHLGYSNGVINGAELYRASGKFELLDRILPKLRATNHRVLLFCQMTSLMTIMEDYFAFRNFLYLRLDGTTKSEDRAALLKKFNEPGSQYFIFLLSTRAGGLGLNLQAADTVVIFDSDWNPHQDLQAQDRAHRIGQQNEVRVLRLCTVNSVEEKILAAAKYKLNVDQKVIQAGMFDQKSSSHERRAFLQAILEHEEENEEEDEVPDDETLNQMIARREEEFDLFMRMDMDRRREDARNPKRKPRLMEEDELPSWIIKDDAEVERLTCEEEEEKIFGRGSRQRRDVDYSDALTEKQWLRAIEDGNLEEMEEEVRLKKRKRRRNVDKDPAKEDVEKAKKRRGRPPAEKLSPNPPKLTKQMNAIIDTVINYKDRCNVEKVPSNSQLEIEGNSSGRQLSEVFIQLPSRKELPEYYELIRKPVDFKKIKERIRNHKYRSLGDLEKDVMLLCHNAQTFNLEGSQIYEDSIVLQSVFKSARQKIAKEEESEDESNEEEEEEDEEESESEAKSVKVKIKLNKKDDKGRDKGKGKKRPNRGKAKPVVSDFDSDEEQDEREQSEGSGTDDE

Take `Cc1ncsc1-c1ccc(CNC(=O)[C@@H]2C[C@@H](O)CN2C(=O)[C@@H](NC(=O)CCCCC(=O)N2CC(c3c[nH]c4nnc(-c5ccccc5O)cc34)C2)C(C)(C)C)cc1` [Compound 47, (2S,4R)-4-hydroxy-1-((S)-2-(6-(3-(3-(2-hydroxyphenyl)-7H-pyrrolo[2,3-c]pyridazin-5-yl)azetidin-1-yl)-6-oxohexanamido)-3,3-dimethylbutanoyl)-N-(4-(4-methylthiazol-5-yl)benzyl)pyrrolidine-2-carboxamide]: the “BRM HiBit Degradation Maximum (%)” value in assay [1] is “C (“C” indicates maximum degradation < 50%)”. The Dmax in assay [2] is less than 50%.

Turning to `Cc1ncsc1-c1ccc([C@H](C)NC(=O)C2C[C@@H](O)CN2C(=O)[C@@H](c2cc(OCCN3C[C@H]4C[C@H](c5[nH]c6nnc(-c7ccccc7O)cc6c5C)C[C@H]4C3)no2)C(C)C)cc1` (single isomer, unassigned) [Compound 112], in assay [1], the “BRM HiBit Degradation Maximum (%)” value was “A (“A” indicates maximum degradation ≥ 75%)” and the DC50 is less than 10 nM. In assay [2], the Dmax was greater than 75% and the DC50 was greater than 10 nM.

Regarding `Cc1ncsc1-c1ccc(CNC(=O)[C@@H]2C[C@@H](O)CN2C(=O)[C@@H](NC(=O)CCCC(=O)N[C@H]2CCc3[nH]c4nnc(-c5ccccc5O)cc4c3C2)C(C)(C)C)cc1` (single isomer, unassigned) [Compound 184], in assay [1], the “BRM HiBit Degradation Maximum (%)” value is “B (“B” indicates maximum degradation ≥ 50%)” and the DC50 was greater than 1000 nM. In assay [2], the Dmax is less than 50%.

Consider `Cc1ncsc1-c1ccc([C@H](C)NC(=O)[C@@H]2C[C@@H](O)CN2C(=O)[C@H](c2cc(C3CCN(C(=O)[C@H]4CCc5[nH]c6nnc(-c7ccccc7O)cc6c5C4)CC3)no2)C(C)C)cc1` (single isomer, unassigned) [Compound 155], for which, in assay [1], the “BRM HiBit Degradation Maximum (%)” value is “C (“C” indicates maximum degradation < 50%)”. In assay [2], the Dmax is less than 50%.

Take `Cc1ncsc1-c1ccc([C@H](C)NC(=O)[C@@H]2C[C@@H](O)CN2C(=O)[C@@H](c2cc(OCCN3CC[C@@H](c4[nH]c5nnc(-c6ccccc6O)cc5c4C)C3)no2)C(C)C)cc1` (racemic) [Compound 259, (2S,4R)-4-hydroxy-1-((R)-2-(3-(2-((R)-3-(3-(2-hydroxyphenyl)-5-methyl-7H-pyrrolo[2,3-c]pyridazin-6-yl)pyrrolidin-1-yl)ethoxy)isoxazol-5-yl)-3-methylbutanoyl)-N-((S)-1-(4-(4-methylthiazol-5-yl)phenyl)ethyl)pyrrolidine-2-carboxamide]: in assay [1], the “BRM HiBit Degradation Maximum (%)” value is recorded as “A (“A” indicates maximum degradation ≥ 75%)” and the DC50 is less than 10 nM. Also, in assay [2], the Dmax is greater than 75% and the DC50 was greater than 10 nM.

For `Cc1ncsc1-c1ccc([C@H](C)NC(=O)[C@@H]2C[C@@H](O)CN2C(=O)[C@@H](c2cc(OCCN3CC4(CC(c5cc6cc(-c7ccccc7O)nnc6[nH]5)C4)C3)no2)C(C)C)cc1` (racemic) [Compound 54, (2S,4R)-4-hydroxy-1-((R)-2-(3-(2-(6-(3-(2-hydroxyphenyl)-7H-pyrrolo[2,3-c]pyridazin-6-yl)-2-azaspiro[3.3]heptan-2-yl)ethoxy)isoxazol-5-yl)-3-methylbutanoyl)-N-((S)-1-(4-(4-methylthiazol-5-yl)phenyl)ethyl)pyrrolidine-2-carboxamide], in assay [1], the “BRM HiBit Degradation Maximum (%)” value was “A (“A” indicates maximum degradation ≥ 75%)” and the DC50 was greater than 10 nM. Also, in assay [2], the Dmax is greater than 50% and the DC50 was greater than 100 nM.

As to `Cc1ncsc1-c1ccc([C@H](C)NC(=O)[C@@H]2C[C@@H](O)CN2C(=O)[C@@H](c2cc(OCCN3CCC[C@H](c4cc5cc(-c6ccccc6O)nnc5[nH]4)C3)no2)C(C)C)cc1` (racemic) [Compound 278, (2S,4R)-4-hydroxy-1-((R)-2-(3-(2-((S)-3-(3-(2-hydroxyphenyl)-7H-pyrrolo[2,3-c]pyridazin-6-yl)piperidin-1-yl)ethoxy)isoxazol-5-yl)-3-methylbutanoyl)-N-((S)-1-(4-(4-methylthiazol-5-yl)phenyl)ethyl)pyrrolidine-2-carboxamide], in assay [1], the “BRM HiBit Degradation Maximum (%)” value is reported as “A (“A” indicates maximum degradation ≥ 75%)” and the DC50 is greater than 10 nM. Besides, in assay [2], the Dmax was greater than 50% and the DC50 is greater than 10 nM.

As for `Cc1ncsc1-c1ccc([C@H](C)NC(=O)[C@@H]2C[C@@H](O)CN2C(=O)[C@@H](c2cc(C3CCN(C(=O)[C@]4(N)CCc5[nH]c6nnc(-c7ccccc7O)cc6c5C4)CC3)no2)C(C)C)cc1` (relative stereo) [Compound 104, (2S,4R)-1-[(2R)-2-(3-{1-[(6R*)-6-amino-3-(2-hydroxyphenyl)-5H,7H,8H,9H-pyridazino[3,4-blindole-6-carbonyl]piperidin-4-yl}-1,2-oxazol-5-yl)-3-methylbutanoyl]-4-hydroxy-N-[(1S)-1-[4-(4-methyl-1,3-thiazol-5-yl)phenyl]ethyl]pyrrolidine-2-carboxamide], in assay [1], the “BRM HiBit Degradation Maximum (%)” value is reported as “B (“B” indicates maximum degradation ≥ 50%)” and the DC50 was greater than 100 nM. For the same molecule, the Dmax in assay [2] was less than 50%.

On to `Cc1ncsc1-c1ccc([C@H](C)NC(=O)[C@@H]2C[C@@H](O)CN2C(=O)[C@@H](c2cc(N3CCN(CCC(=O)N4CC(c5cc6cc(-c7ccccc7O)nnc6[nH]5)C4)CC3)no2)C(C)C)cc1` (racemic) [Compound 268, (2S,4R)-4-hydroxy-1-[(2R)-2-{3-[4-(3-{3-[3-(2-hydroxyphenyl)-7H-pyrrolo[2,3-c]pyridazin-6-yl]azetidin-1-yl}-3-oxopropyl)piperazin-1-yl]-1,2-oxazol-5-yl}-3-methylbutanoyl]-N-[(1S)-1-[4-(4-methyl-1,3-thiazol-5-yl)phenyl]ethyl]pyrrolidine-2-carboxamide], for which, in assay [1], the “BRM HiBit Degradation Maximum (%)” value is on record as “A (“A” indicates maximum degradation ≥ 75%)” and the DC50 is greater than 100 nM. For the same molecule, the DC50 in assay [2] is greater than 1000 nM.

Turning to `Cc1ncsc1-c1ccc([C@H](C)NC(=O)[C@@H]2C[C@@H](O)CN2C(=O)[C@@H](c2cc(N3CCC(C(=O)N4CCc5[nH]c6nnc(-c7ccccc7O)cc6c5[C@@H]4C)CC3)no2)C(C)C)cc1` (racemic) [Compound 86, (2S,4R)-4-hydroxy-1-((R)-2-(3-(4-((S)-3-(2-hydroxyphenyl)-5-methyl-6,7,8,9-tetrahydro-5H-pyrido[3′,4′:4,5]pyrrolo[2,3-c]pyridazine-6-carbonyl)piperidin-1-yl)isoxazol-5-yl)-3-methylbutanoyl)-N-((S)-1-(4-(4-methylthiazol-5-yl)phenyl)ethyl)pyrrolidine-2-carboxamide], in assay [1], the “BRM HiBit Degradation Maximum (%)” value is reported as “A (“A” indicates maximum degradation ≥ 75%)” and the DC50 is greater than 100 nM. For the same molecule, the Dmax in assay [2] is less than 50%.

Regarding `Cc1ncsc1-c1ccc([C@H](C)NC(=O)[C@@H]2C[C@@H](O)CN2C(=O)[C@@H](c2cc(OCCN3CC(C)(c4cc5cc(-c6ccccc6O)nnc5[nH]4)C3)no2)C(C)C)cc1` (racemic) [Compound 275, (2S,4R)-4-hydroxy-1-((R)-2-(3-(2-(3-(3-(2-hydroxyphenyl)-7H-pyrrolo[2,3-c]pyridazin-6-yl)-3-methylazetidin-1-yl)ethoxy)isoxazol-5-yl)-3-methylbutanoyl)-N-((S)-1-(4-(4-methylthiazol-5-yl)phenyl)ethyl)pyrrolidine-2-carboxamide], in assay [1], the “BRM HiBit Degradation Maximum (%)” value is “A (“A” indicates maximum degradation ≥ 75%)” and the DC50 is greater than 10 nM. Further, in assay [2], the Dmax is less than 50%.

The values above are taken from patent US20240024488A1, “COMPOUNDS AND USES THEREOF” (Foghorn Therapeutics Inc., priority 2020, published 2024).
